Results taken from US4169096A, “Antibiotic compounds” (priority 1977, dated 1979).
Values after ≈ are worked out from the molar mass of the structure shown. Where two headings read alike, the source gives them in different places.

What was measured:
in vivo = conditions: mouse
B. fragilis A20926 = experiment: Localized infection with B. fragilis in mice; format: in vivo; conditions: for mean score: control 4.2; for sum of score: control 21; for infectivity level: control 100%
C. perfringens A9635 [1] = experiment: animal or person; format: in vivo, mice; conditions: Clostridium perfringens, A9635, in Mus musculus, 120 h, read-out: PD50
[2] = subcutaneous or oral
[3] = test system: Bacillus subtilis PCI-219; experiment: MIC, serial two-fold agar dilution, aerobic bacteria; format: cell-based; conditions: PCI219, Nutrient agar (Eiken), read-out: MIC
[4] = test system: Fusobacterium varium ATCC 8501; experiment: microbe, parasite or virus in culture; conditions: ATCC8501
[5] = test system: Staphylococcus aureus 209P; experiment: MIC, serial two-fold agar dilution, aerobic bacteria; format: cell-based; conditions: Nutrient agar (Eiken)
[6] = test system: Peptocuccus prevotii ATCC 9321; experiment: microbe, parasite or virus in culture
C. perfringens A9635 [7] = experiment: microbe, parasite or virus in culture; format: cell-based; conditions: Clostridium perfringens, A9635, 18 h
[8] = test system: Clostridium caproicum IAM 19228; experiment: microbe, parasite or virus in culture; conditions: IAM19228
S. pyogenes A20201 [9] = experiment: Systemic infection with S. pyogenes in mice; format: in vivo; conditions: Streptococcus pyogenes, A20201, 120 h, just before challenge, determined after 5 days, read-out: PD50
B. fragilis A20928-1 = experiment: Bactericidal activity (MIC & MBC); format: cell-based; conditions: Bacteroides fragilis, A209281; inoculum size 2.8 × 10^6 cell/ml; broth
[10] = test system: Bacteroides fragilis A20932; experiment: microbe, parasite or virus in culture
[11] = test system: Fusobacterium mortiferum ATCC 9817; experiment: microbe, parasite or virus in culture; conditions: ATCC9817
S. pyogenes A20201 [12] = experiment: Bactericidal activity (MIC & MBC); format: cell-based; conditions: Streptococcus pyogenes, A20201, inoculum size 6 × 10^5 cell/ml
[13] = test system: C. perfringens or S. pyrogenes; format: in vivo, mice; conditions: mouse, in vivo
[14] = test system: Klebsiella pneumoniae A9678; experiment: MIC, serial two-fold agar dilution, aerobic bacteria; format: cell-based
[15] = test system: Veillonella parvula ATCC 17745; experiment: microbe, parasite or virus in culture; conditions: ATCC17745
[16] = test system: Peptococcus aerogenes ATCC 14963; experiment: microbe, parasite or virus in culture; conditions: Peptoniphilus asaccharolyticus, ATCC14963
[17] = test system: Staphylococcus aereus Smith; experiment: MIC, serial two-fold agar dilution, aerobic bacteria; format: cell-based; conditions: Nutrient agar (Eiken), read-out: MIC
[18] = test system: Peptostreptococcus anaerobius B43; format: cell-based; conditions: GAM agar medium (Nissui)
[19] = test system: Neisseria meningitidis A20049; experiment: MIC, serial two-fold agar dilution, aerobic bacteria; format: cell-based
[20] = test system: Serratia marcescens A20019; experiment: as above; format: cell-based
[21] = test system: Bacteroides fragilis A20930; experiment: microbe, parasite or virus in culture
[22] = test system: Sphaerophorus pseudonecrophorus A20013; experiment: microbe, parasite or virus in culture; conditions: Fusobacterium necrophorum
[23] = test system: Hemophilus influenzae A20188; experiment: MIC, serial two-fold agar dilution, aerobic bacteria; format: cell-based; conditions: Haemophilus influenzae, GC medium (Eiken)
[24] = test system: Neisseria gonorrhoeae A20154; experiment: as above; format: cell-based; conditions: GC medium (Eiken)
Proteus morganii A9553 = experiment: as above; format: cell-based; conditions: Morganella morganii, Nutrient agar (Eiken)
Proteus mirabilis A9554 = experiment: as above; format: cell-based; conditions: Nutrient agar (Eiken)
[25] = test system: Acidoaminococcus fermentans ATCC 25085; experiment: microbe, parasite or virus in culture
[26] = test system: Staphylococcus aureus #52-34; experiment: MIC, serial two-fold agar dilution, aerobic bacteria; format: cell-based; conditions: Nutrient agar (Eiken), read-out: MIC
[27] = test system: Pseudomonas aeruginosa A9843; experiment: as above; format: cell-based; conditions: test medium not given
C. perfringens A9635 [28] = experiment: microbe, parasite or virus in culture; format: cell-based, Clostridium perfringens; conditions: inoculum size 7 × 10^6 cell/ml
[29] = test system: Bacteroides fragilis A20929; experiment: microbe, parasite or virus in culture
[30] = test system: Neisseria gonorrhoeae A15112; experiment: MIC, serial two-fold agar dilution, aerobic bacteria; format: cell-based; conditions: GC medium (Eiken)

## Cc1ncc([N+](=O)[O-])n1CCO [Flagyl]
In vivo; po, 25 mg/kg
  concentration at 0.5 h: 8800 ng/mL
  concentration at 1 h: 6700 ng/mL
  concentration at 3 h: 6100 ng/mL
In vivo; po, 50 mg/kg
  concentration at 0.5 h: 20000 ng/mL
  concentration at 1 h: 15000 ng/mL
  concentration at 3 h: 11000 ng/mL
In vivo; po, 100 mg/kg
  concentration at 0.5 h: 56000 ng/mL
  concentration at 1 h: 41000 ng/mL
  concentration at 3 h: 24000 ng/mL
  concentration at 5 h: 13000 ng/mL
In vivo; sc, 25 mg/kg
  concentration at 0.5 h: 15000 ng/mL
  concentration at 1 h: 12000 ng/mL
  concentration at 2 h: 8300 ng/mL
In vivo; sc, 50 mg/kg
  concentration at 0.5 h: 32000 ng/mL
  concentration at 1 h: 26000 ng/mL
  concentration at 2 h: 12000 ng/mL
In vivo; sc, 100 mg/kg
  concentration at 0.5 h: 121000 ng/mL
  concentration at 1 h: 98000 ng/mL
  concentration at 2 h: 40000 ng/mL
B. fragilis A20926; oral, 6.3 × 5 mg/kg
  mean score: 3.4
  sum of score: 17
  infectivity level: 81.0%
B. fragilis A20926; oral, 25 × 5 mg/kg
  mean score: 2.6
  sum of score: 13
  infectivity level: 61.9%
B. fragilis A20926; oral, 100 × 5 mg/kg
  mean score: 1.6
  sum of score: 8
  infectivity level: 38.1%
B. fragilis A20926; oral, […] 5 mg/kg
  mean score: 4.0
  sum of score: 20
  infectivity level: 95.2%
B. fragilis A20926; subcutaneous, 0.8 × 5 mg/kg
  mean score: 4.0
  sum of score: 20
  infectivity level: 95.2%
B. fragilis A20926; subcutaneous, 3.1 × 5 mg/kg
  mean score: 3.4
  sum of score: 17
  infectivity level: 81.0%
B. fragilis A20926; subcutaneous, 50 × 5 mg/kg
  mean score: 2.0
  sum of score: 10
  infectivity level: 47.6%
B. fragilis A20926; subcutaneous, […] 5 mg/kg
  mean score: 2.4
  sum of score: 12
  infectivity level: 57.1%
C. perfringens A9635 [1]; po
  ED50: 60 mg/kg
C. perfringens A9635 [1]; sc
  ED50: 31 mg/kg
[2]
  absorption compared with Bu-2313B: better absorptions than Bu-2313B

## CCC[C@@H]1C[C@@H](C(=O)N[C@@H]([C@H]2O[C@H](SC)[C@H](O)[C@@H](O)[C@H]2O)[C@H](C)Cl)N(C)C1 [Clindamycin]
[3]
  MIC: 0.8 µg/mL (≈ 1.88 µM)
[4]
  MIC: 0.05 µg/mL (≈ 0.118 µM)
[5]
  MIC: 0.1 µg/mL (≈ 0.235 µM)
[6]
  MIC: 0.1 µg/mL (≈ 0.235 µM)
C. perfringens A9635 [7]
  MBC: 0.05 µg/mL (≈ 0.118 µM)
[8]
  MIC: 0.1 µg/mL (≈ 0.235 µM)
S. pyogenes A20201 [9]; po, NA: no activity
  ED50: 2.1 mg/kg
S. pyogenes A20201 [9]; sc
  ED50: 0.3 mg/kg
B. fragilis A20928-1
  MIC: 0.05 µg/mL (≈ 0.118 µM)
[10]
  MIC: 0.05 µg/mL (≈ 0.118 µM)
[11]
  MIC: 0.05 µg/mL (≈ 0.118 µM)
S. pyogenes A20201 [12]; broth
  MIC: 0.05 µg/mL (≈ 0.118 µM)
S. pyogenes A20201 [12]; growth of less than 100 colonies per plate, 18 hours at 37° C., read-out: MBC
  MBC: 6.3 µg/mL (≈ 14.8 µM)
[13]
  comparative in vivo activity: the most active
[14]
  MIC: 100 µg/mL (≈ 235 µM)
B. fragilis A20926; B. fragilis localized infection
  comparative in vivo activity: more active than Bu-2313B or Flagyl
B. fragilis A20926; oral, 6.3 × 5 mg/kg
  mean score: 2.6
  sum of score: 13
  infectivity level: 61.9%
B. fragilis A20926; oral, 25 × 5 mg/kg
  mean score: 1.8
  sum of score: 9
  infectivity level: 42.9%
B. fragilis A20926; oral, 100 × 5 mg/kg
  sum of score: 2
  infectivity level: 9.5%
B. fragilis A20926; oral, […] 5 mg/kg
  mean score: 4.0
  sum of score: 20
  infectivity level: 95.2%
B. fragilis A20926; subcutaneous, 0.8 × 5 mg/kg
  mean score: 4.0
  sum of score: 20
  infectivity level: 95.2%
B. fragilis A20926; subcutaneous, 3.1 × 5 mg/kg
  mean score: 2.0
  sum of score: 10
  infectivity level: 47.6%
B. fragilis A20926; subcutaneous, 50 × 5 mg/kg
  mean score: 0.8
  sum of score: 4
  infectivity level: 19.0%
B. fragilis A20926; subcutaneous, […] 5 mg/kg
  mean score: 1.4
  sum of score: 7
  infectivity level: 33.3%
[15]
  MIC: 0.05 µg/mL (≈ 0.118 µM)
[16]
  MIC: 0.2 µg/mL (≈ 0.471 µM)
[17]
  MIC: 0.1 µg/mL (≈ 0.235 µM)
[18]
  MIC: 0.8 µg/mL (≈ 1.88 µM)
[19]
  MIC: 0.05 µg/mL (≈ 0.118 µM)
[20]
  MIC: 50 µg/mL (≈ 118 µM)
[21]
  MIC: 0.05 µg/mL (≈ 0.118 µM)
[22]
  MIC: 0.05 µg/mL (≈ 0.118 µM)
[23]
  MIC: 0.8 µg/mL (≈ 1.88 µM)
[24]
  MIC: 0.2 µg/mL (≈ 0.471 µM)
C. perfringens A9635 [1]; po
  ED50: 0.22 mg/kg
C. perfringens A9635 [1]; sc
  ED50: 0.08 mg/kg
Proteus morganii A9553
  MIC: 100 µg/mL (≈ 235 µM)
Proteus mirabilis A9554
  MIC: 100 µg/mL (≈ 235 µM)
[25]
  MIC: 0.05 µg/mL (≈ 0.118 µM)
[26]
  MIC: 0.1 µg/mL (≈ 0.235 µM)
[27]
  MIC: > 100 µg/mL
C. perfringens A9635 [28]
  MIC in GAM agar: 0.0125 µg/mL (≈ 0.0294 µM)
[29]
  MIC: 0.05 µg/mL (≈ 0.118 µM)
[30]
  MIC: 0.2 µg/mL (≈ 0.471 µM)
